# Measurements published in patent publication US20230145835A1, “Modulators of Alpha-4-beta-7 Integrin and MAdCAM” (48HD Biopharma Inc., priority 2021, published 2023).
# Where “and” joins values, the source holds several entries; their conditions need not be identical. Identical values can stand only once. Numbered stars: 1 amine (or outer) side, 2 acyl side, 3 side chain; on linkers, the order of the positions; unused ones are H or OH. Bridge positions count the residues as written; N and C are the ends. Square brackets hold non-standard residues; d marks the D form. Peptide text beside a SMILES is read from it. * marks the point of attachment. X3 = O=C(/C=N/OCCCCCCOc1cc(C[*:2])cc(C[*:3])c1)[*:1]; X1 = O=C(C=NOCCCCCCOc1cc(C[*:2])cc(C[*:3])c1)[*:1]; X11 = CCCCCOc1cc(C[*:1])cc(C[*:2])c1; tBuAla = CC(C)(C)C[C@H](N)C(=O)O; Nle = CCCC[C@H](N)C(=O)O; X10 = CO/N=C/C(=O)*
# Target: T1, rh-integrin α4β7/LPAM-1 (Homo sapiens, UniProt P13612+P26010)
# T1 sequence (P13612 34-977 limits assumed): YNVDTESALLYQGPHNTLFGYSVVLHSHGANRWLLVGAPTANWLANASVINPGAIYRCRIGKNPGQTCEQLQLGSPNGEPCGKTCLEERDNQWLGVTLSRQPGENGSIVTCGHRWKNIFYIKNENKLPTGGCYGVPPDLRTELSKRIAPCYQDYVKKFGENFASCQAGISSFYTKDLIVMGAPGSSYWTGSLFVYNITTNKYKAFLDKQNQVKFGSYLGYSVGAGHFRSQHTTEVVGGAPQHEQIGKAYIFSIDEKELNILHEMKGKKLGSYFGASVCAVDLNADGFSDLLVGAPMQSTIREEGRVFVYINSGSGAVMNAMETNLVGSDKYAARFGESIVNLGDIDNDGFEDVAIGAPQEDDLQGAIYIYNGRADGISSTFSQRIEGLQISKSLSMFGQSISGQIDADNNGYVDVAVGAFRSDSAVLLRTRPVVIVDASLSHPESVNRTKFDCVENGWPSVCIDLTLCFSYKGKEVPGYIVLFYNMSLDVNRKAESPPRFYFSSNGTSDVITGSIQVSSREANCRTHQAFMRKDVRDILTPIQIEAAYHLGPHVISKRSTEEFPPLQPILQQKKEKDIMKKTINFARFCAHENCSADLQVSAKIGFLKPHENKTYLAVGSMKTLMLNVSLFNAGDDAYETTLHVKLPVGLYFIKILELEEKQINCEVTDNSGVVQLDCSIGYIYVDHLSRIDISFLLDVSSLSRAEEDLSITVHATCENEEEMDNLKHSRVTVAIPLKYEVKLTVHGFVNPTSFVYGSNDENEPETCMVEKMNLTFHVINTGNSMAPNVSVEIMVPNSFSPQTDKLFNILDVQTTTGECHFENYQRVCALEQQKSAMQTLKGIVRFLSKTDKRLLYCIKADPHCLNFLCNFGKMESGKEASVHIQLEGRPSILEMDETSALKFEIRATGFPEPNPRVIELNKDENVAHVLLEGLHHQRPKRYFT
# T1 sequence (P26010 20-723 limits assumed): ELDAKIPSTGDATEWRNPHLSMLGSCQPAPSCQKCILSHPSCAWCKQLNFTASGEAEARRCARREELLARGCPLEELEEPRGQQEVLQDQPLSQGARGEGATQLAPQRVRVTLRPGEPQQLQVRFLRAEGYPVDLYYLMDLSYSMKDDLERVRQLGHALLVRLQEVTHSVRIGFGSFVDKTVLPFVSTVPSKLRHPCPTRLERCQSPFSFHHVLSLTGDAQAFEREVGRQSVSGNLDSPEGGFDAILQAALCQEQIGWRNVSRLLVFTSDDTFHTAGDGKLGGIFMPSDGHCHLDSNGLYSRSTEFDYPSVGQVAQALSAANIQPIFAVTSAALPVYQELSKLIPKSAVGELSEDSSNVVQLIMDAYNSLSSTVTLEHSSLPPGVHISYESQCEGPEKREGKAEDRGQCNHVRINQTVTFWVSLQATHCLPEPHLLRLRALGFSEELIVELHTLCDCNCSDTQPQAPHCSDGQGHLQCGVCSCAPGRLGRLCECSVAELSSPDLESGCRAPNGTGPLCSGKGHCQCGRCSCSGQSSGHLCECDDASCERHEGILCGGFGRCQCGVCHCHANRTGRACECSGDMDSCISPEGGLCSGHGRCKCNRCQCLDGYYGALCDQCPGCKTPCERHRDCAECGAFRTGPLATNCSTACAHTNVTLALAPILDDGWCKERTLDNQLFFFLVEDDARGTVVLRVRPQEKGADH
# Assay: α4β7-MadCAM Competition ELISA (Example 4)
# Type: binding
# Details: Table 3 Representative compounds; inhibition of MAdCAM binding to coated α4β7; read-out: IC50
# Description: After washing with wash buffer, 200 μL assay buffer was added to each well and incubated for one hour at 28° C. After another wash with wash buffer, 100 μL of a MAdCAM and peptide mixture in assay buffer was added to each well and incubated for one hour at 28° C., followed by washing with wash buffer.
row,SMILES,IC50
1,CC(=O)N[C@H]1CSSC[C@@H](C(=O)NCC(=O)N[C@@H](CCC(=O)O)C(N)=O)NC(=O)[C@H](CC(C)C)NC(=O)[C@H]([C@@H](C)O)NC(=O)[C@H](CC(=O)O)NC(=O)[C@H](CO)NC(=O)[C@H](CCCNC(=N)N)NC1=O [compound 7] (Ac-CRSDTLCGE-NH2; disulfide 1-7),0.136 µM
2,CC(C)C[C@@H]1NC(=O)[C@H]([C@@H](C)O)NC(=O)[C@H](CC(=O)O)NC(=O)[C@H](CO)NC(=O)[C@H](CCCNC(=N)N)N(C)C(=O)c2ccccc2CSC(C)(C)[C@@H](C(=O)N[C@@H](Cc2c[nH]c3ccccc23)C(=O)N[C@H](CCC(=O)O)C(N)=O)NC1=O [compound 1],0.003 µM
3,CCCC[C@@H]1NC(=O)[C@H](CO)NC(=O)[C@H](CCCNC(=N)N)NC(=O)[C@@H]2CSCC(=O)N[C@@H](CCCNC(=N)N)C(=O)N[C@@H](CSSC[C@@H](C(=O)N[C@@H](Cc3c[nH]c4ccccc34)C(=O)N[C@@H](CCC(N)=O)C(N)=O)NC(=O)[C@H](CC(C)C)NC(=O)[C@@H](CC(=O)O)NC1=O)C(=O)N[C@@H](CO)C(=O)N[C@@H](CC(=O)O)C(=O)N[C@@H]([C@@H](C)O)C(=O)N[C@@H](CC(C)C)C(=O)N2 [compound 68] ({CH2CO}-RCSDTLCRS[Nle][dD]LCWQ-NH2; disulfide 2-13; thioether N-7),15.9 µM
4,"CC(C)[C@@H]1NC(=O)[C@H](CC(=O)O)NC(=O)[C@H](CC(C)(C)C)NC(=O)[C@@H]2CCCN2C(=O)[C@@H]2CSCc3cc(cc(c3)OCCCCCCO/N=C/C(=O)N[C@@H](CCCNC(=N)N)C(=O)N2)CSC[C@@H](C(N)=O)NC(=O)[C@H](CCC(=O)O)NC(=O)[C@H](CCC(N)=O)NC(=O)[C@@H]2CCCN2C1=O [compound 30, TSL6- SRCP{tBuAla} DVPQEC] (RCP[tBuAla]DVPQEC-NH2; linker N-2-10 via X3)",0.69 µM
5,"C[C@@H](O)[C@@H]1NC(=O)[C@H](CC(=O)O)NC(=O)[C@@H]2CCCN2C(=O)[C@H](Cc2ccc(O)cc2)NC(=O)[C@@H]2CSCc3cc(cc(c3)OCCCCCCO/N=C/C(=O)N[C@@H](CC(=O)O)C(=O)N2)CSC[C@@H](C(N)=O)NC(=O)[C@H](Cc2cnc[nH]2)NC(=O)[C@H](Cc2ccc(O)cc2)NC1=O [compound 88, TSL6- SDCYPDTYHC] (DCYPDTYHC-NH2; linker N-2-9 via X3)",72.5 µM
6,"C[C@@H](O)[C@@H]1NC(=O)[C@H](CC(=O)O)NC(=O)[C@@H]2CCCN2C(=O)[C@H](Cc2ccccc2)NC(=O)[C@@H]2CSCc3cc(cc(c3)OCCCCCCO/N=C/C(=O)N[C@@H](CC(=O)O)C(=O)N2)CSC[C@@H](C(N)=O)NC(=O)[C@H](Cc2cnc[nH]2)NC(=O)[C@H](Cc2ccc(O)cc2)NC1=O [compound 84, TSL6- SDCFPDTYHC] (DCFPDTYHC-NH2; linker N-2-9 via X3)",65.7 µM
7,CC(C)C[C@@H]1NC(=O)[C@H](CO)NC(=O)[C@H](CCCNC(=N)N)NC(=O)[C@@H]2CSCC(=O)N[C@@H](CCCNC(=N)N)C(=O)N[C@@H](CSSC[C@@H](C(=O)N[C@@H](Cc3c[nH]c4ccccc34)C(=O)N[C@@H](CCC(N)=O)C(N)=O)NC(=O)[C@H](C(C)C)NC(=O)[C@@H](CC(=O)O)NC1=O)C(=O)N[C@@H](CO)C(=O)N[C@@H](CC(=O)O)C(=O)N[C@@H]([C@@H](C)O)C(=O)N[C@@H](CC(C)C)C(=O)N2 (racemic) [compound 87],71.3 µM
8,"CC(C)C[C@@H]1NC(=O)[C@@H]2CCCN2C(=O)[C@@H]2CSCc3cc(cc(c3)OCCCCCCO/N=C/C(=O)N[C@@H](CCCCN)C(=O)N2)CSC[C@@H](C(N)=O)NC(=O)[C@H](CCC(=O)O)NC(=O)[C@H](Cc2ccc(O)cc2)NC(=O)[C@@H]2CCCN2C(=O)[C@H](C)NC(=O)[C@H](CC(=O)O)NC1=O [compound 42, TSL6- SKCPLDAPYEC] (KCPLDAPYEC-NH2; linker N-2-10 via X3)",1.4 µM
9,"CCCC[C@@H]1NC(=O)[C@H](CO)NC(=O)[C@@H]2CSSC[C@@H](C(=O)N[C@@H](Cc3c[nH]c4ccccc34)C(=O)N[C@@H](CCC(N)=O)C(N)=O)NC(=O)[C@H](CC(C)C)NC(=O)[C@@H]([C@H](C)O)NC(=O)[C@H](CC(=O)O)NC(=O)[C@H](CO)NC(=O)[C@H](CCCNC(=N)N)NC(=O)[C@H](CSCC(=O)N[C@@H](CCCNC(=N)N)C(=O)N2)NC(=O)[C@H](CC(C)C)NC(=O)[C@H](CC(=O)O)NC1=O [compound 76, Disulfide- RCS{Nle}DICRS DTLCWQ] ({CH2CO}-RCS[Nle]DLCRSD[dT]LCWQ-NH2; disulfide 2-13; thioether N-7)",34.3 µM
10,"CC(C)C[C@@H]1NC(=O)[C@@H]2CCCN2C(=O)[C@@H]2CSCc3cc(cc(c3)OCCCCCCO/N=C/C(=O)N[C@@H](CCCCN)C(=O)N2)CSC[C@@H](C(N)=O)NC(=O)[C@H](CCC(=O)O)NC(=O)[C@H](CCC(N)=O)NC(=O)[C@@H]2CCCN2C(=O)[C@H]([C@@H](C)O)NC(=O)[C@H](CC(=O)O)NC1=O [compound 26, TSL6- SKCPLDTPQEC] (KCPLDTPQEC-NH2; linker N-2-10 via X3)",0.602 µM
11,"CC(C)C[C@@H]1NC(=O)[C@@H]2CCCN2C(=O)[C@@H]2CSCc3cc(cc(c3)OCCCCCCO/N=C/C(=O)N[C@@H](CCCCN)C(=O)N2)CSC[C@@H](C(N)=O)NC(=O)[C@H](CO)NC(=O)[C@@H]2CCCN2C(=O)[C@H](C)NC(=O)[C@H](CC(=O)O)NC1=O [compound 50, TSL6- SKCPLDAPSC] (KCPLDAPSC-NH2; linker N-2-9 via X3)",1.74 µM
12,"CC(C)C[C@@H]1NC(=O)[C@@H]2CCCN2C(=O)[C@@H]2CSCc3cc(cc(c3)OCCCCCCO/N=C/C(=O)N[C@@H](CCCCN)C(=O)N2)CSC[C@@H](C(N)=O)NC(=O)[C@H](CCC(=O)O)NC(=O)[C@H](Cc2ccc(O)cc2)NC(=O)[C@@H]2CCCN2C(=O)[C@H]([C@@H](C)O)NC(=O)[C@H](CC(=O)O)NC1=O [compound 22, TSL6- SKCPLDTPYEC] (KCPLDTPYEC-NH2; linker N-2-10 via X3)",0.495 µM and 0.94 µM
13,"CCCCCOc1cc2cc(c1)CSC[C@H](NC(=O)[C@H](Cc1ccccc1)NC(=O)/C=N/OC)C(=O)N[C@@H](CC(C)C)C(=O)NCC(=O)N[C@@H](Cc1ccc(O)cc1)C(=O)N[C@@H](CCC(=O)O)C(=O)N[C@@H](C)C(=O)N[C@@H]([C@@H](C)O)C(=O)N[C@H](C(N)=O)CSC2 [compound 97, TSL6- SFCLGYEASC] (X10-FCLGYEATC-NH2; linker 2-9 via X11)",127 µM

# Same assay, conditions: competition ELISA, 4 μg/mL α4β7 coated, MAdCAM and peptide mixture, 28° C.; read-out: IC50
row,SMILES,IC50
1,CCCC[C@@H]1NC(=O)[C@@H]2CCCN2C(=O)[C@@H]2CSCc3cc(cc(c3)OCCCCCCON=CC(=O)N[C@@H](CCCNC(=N)N)C(=O)N2)CSC[C@@H](C(=O)O)NC(=O)[C@H](CCC(=O)O)NC(=O)CNC(=O)[C@H](C)NC(=O)[C@H](C(C)C)NC(=O)[C@H](CC(=O)O)NC1=O [SEQ ID NO: 138] (RCP[Nle]DVAGEC-OH; linker N-2-10 via X1),0.261 µM
2,CCCC[C@@H]1NC(=O)[C@H](CO)NC(=O)[C@@H]2CSSC[C@@H](C(=O)N[C@@H](Cc3c[nH]c4ccccc34)C(=O)N[C@@H](CCC(N)=O)C(N)=O)NC(=O)[C@H](C(C)C)NC(=O)[C@H](CC(=O)O)NC(=O)[C@H](CC(C)C)NC(=O)[C@H](CO)NC(=O)[C@H](CCCNC(=N)N)NC(=O)[C@H](CSCC(=O)N[C@@H](CCCNC(=N)N)C(=O)N2)NC(=O)[C@H]([C@@H](C)CC)NC(=O)[C@H](CC(=O)O)NC1=O [SEQ ID NO: 94] ({CH2CO}-RCS[Nle]DICRSLDVCWQ-NH2; disulfide 2-13; thioether N-7),19.7 µM
